For data set [1], the system named is CD4+ T cells. Nature of the data set: Extracellular flux analysis (ECAR, OCR) of CD4+ T cells stimulated with anti-CD3/CD28. Type of data set: cell-based, 5C.C7 mice. To be noted: 2-DG 10 mM; Metformin 50 mM; DON 30 μM; after anti-CD3/CD28. How it is done:
Extracellular flux analysis: Cells were initially plated to XF assay medium, modified DMEM (Seahorse Bioscience) containing 25 mM glucose, 2 mM L-glutamine, and 1 mM sodium pyruvate, and incubated in a non-CO2 incubator at 37° C. for 30 minutes. OCR and ECAR were measured at 37° C. in a XF96 Extracellular Flux Analyzer (Seahorse Bioscience) using manufacturer recommended protocols. After baseline measurements, OCR and ECAR were measured after sequentially adding anti-CD3/CD28 and metabolic reprogramming agents into each well to the indicated final concentrations using the included ports on the XF96 cartridges. All data were collected using the XF Reader software from Seahorse Bioscience.
OCR is an indicator of mitochondrial OXPHOS, and ECAR is predominantly a measure of lactic acid formed during glycolytic energy metabolism, and thus reflects overall glycolytic flux. Primary, naïve 5C.C7 CD4^+ T cells were incubated with pigeon cytochrome c (PCC) peptide for 48 hrs and then expanded and rested in IL-2 for an additional 5 days to generate previously activated CD4^+ cells. After measuring the baseline bioenergetics of these resting CD4^+ cells, cells were re-stimulated with anti-CD3/CD28 (FIG. 9A and FIG. 9B). […] Upon reaching the peak of glycolytic flux, metabolic reprogramming agents were administered to the cells. 2-DG is a glucose analog that inhibits hexokinase, the first enzyme in the glycolytic pathway (Rowe et al. (2013) Nature Medicine 19(4):488-493). […] Metformin is a commonly used oral hypoglycemic that activates AMPK, inhibits mitochondrial respiratory complex I and promotes fatty acid oxidation (Buzzai et al. (2007) Cancer Research 67(14):6745-6752; El-Mir et al. (2000) The Journal of Biological Chemistry 275(1):223-228).

Data set [2] deals with CD4+ and CD8+ T cells. Nature of the data set: T cell proliferation (eFluor 670 dilution) of splenocytes stimulated with anti-CD3. Type of data set: cell-based, C57BL/6 mice. To be noted: anti-CD3, 72 h; DON 5 μM; 2-DG 0.6 mM; Metformin 1 mM.
Data set [3] relates to CD4+ and CD8+ T cells. Nature of the data set: IFN-γ secretion of anti-CD3 stimulated splenocytes (ELISA). Type of data set: cell-based, C57BL/6 mice. The conditions noted are these: anti-CD3, 24 h; DON 5 μM; 2-DG 0.6 mM; Metformin 1 mM. In general terms: ELISA stands for enzyme-linked immunosorbent assay.
A short description of data set [4]: Pharmacokinetics of DON in swine plasma and CSF after i.v. infusion of DON, compound 14b or compound 47. The conditions noted are these: for CSF-to-plasma ratio of DON: 60 min post-administration; for amount of DON delivered to the CSF relative to DON: CSF at 60 min post-dose. Type of data set: in vivo. Here is the method:
Compound: Compound 47 was dissolved in a sterile saline containing 5% ethanol and 5% Tween 80 on the date of administration.
Swine: Swine studies were conducted under a protocol approved by the Johns Hopkins Animal Care and Use Committee. Adult, female Gottingen×Yucutan miniature swine (Massachusetts General Hospital, MA) were housed in Johns Hopkins University facilities accredited by the Association for Assessment and Accreditation of Laboratory Animal Care International in compliance with the Animal Welfare Act, Animal Welfare Regulations, and the Public Health Service Policy on the Humane Care and Use of Laboratory Animals. Animals were maintained on a 14-h light and 10-h dark schedule, provided ad libitum water and a commercial miniswine diet (Teklad, Madison, Wis.) with environmental enrichment (fruit/vegetables) twice daily.

Data set [5] in a line: In vitro liver microsomal stability, pig microsomes. In general terms: Liver microsomes are vesicles of endoplasmic reticulum, rich in cytochrome P450 enzymes.
Data set [6] is described as follows: In vitro liver microsomal stability, human microsomes.
Data set [7] can be described thus: In vitro plasma stability, human plasma. Type of data set: in vitro ADME.
Data set [8] is described as follows: In vitro plasma stability, pig plasma. The class given is in vitro ADME.
The nature of data set [9]: In vitro plasma stability, dog plasma. Type of data set: in vitro ADME.
A short description of data set [10]: In vitro plasma stability, monkey plasma. Type of data set: in vitro ADME, monkeys.
Data set [11] in a line: In vitro plasma stability, mouse plasma. Type of data set: in vitro ADME, mice.
In data set [12] the test system is glutaminase. Nature of the data set: Glutaminase activity analysis of activated CD4+ T cells (radiolabeled assay). Type of data set: cell-based, mice. The conditions noted are these: anti-CD3/CD28, 24 hrs; DON 5 μM. How it is done: Glutaminase activity analysis: Glutaminase activity measurement was adapted from previously described protocols (Thomas et al. (2013) Biochemical and Biophysical Research Communications 438(2):243-248). Briefly, T cells were lysed in ice-cold potassium phosphate buffer (45 mM, pH 8.2) containing protease inhibitors (Roche, Complete Protease Inhibitor Cocktail, 1 tablet in 50 ml) and incubated with 3H-glutamine (0.03 μM, 0.91 μCi) for 90 min at room temperature. The reactions were carried out in 50 μl reaction volumes in a 96-well microplate. At the end of the reaction period, the assay was terminated upon the addition of imidazole buffer (20 mM, pH 7). 96-well spin columns packed with strong anion ion-exchange resin (Bio-Rad, AG® 1-X2 Resin, 200-400 mesh, chloride form) were used to separate the substrate and the reaction product. Unreacted ^3H-glutamine was removed by washing with imidazole buffer. ^3H-glutamate, the reaction product, was then eluted with 0.1 N HCl and analyzed for radioactivity using Perkin Elmer's TopCount instrument in conjunction with their 96-well LumaPlates. […]

Data set [13] deals with antigen-specific CD4+ T cells. The class given is in vivo, mice.
Data set [14] concerns antigen-specific CD8+ T cells. The class given is in vivo, mice. To be noted: DON added to 2DG+Metformin therapy.
In data set [15] the test system is Balb/c to C57BL/6 skin allograft. Nature of the data set: Murine skin transplantation (Balb/c to C57BL/6). The class given is in vivo, mice.
Data set [16] concerns Balb/c to C57BL/6 heart allograft. Nature of the data set: Murine heterotopic heart transplantation (Balb/c to C57BL/6). Details: species or system mice. The conditions noted are these: mouse, in vivo. Here is the method:
Murine heterotopic heart transplantation: BALB/c mice served as heart donors and C57BL/6 mice serve as allograft recipients. Either abdominal or cervical heterotopic heart transplantation was performed according to previously published methods (Corry et al. (1973) Transplantation 16(4):343-350; Oberhube et al. (2014) J Vis Exp 92:e50753). Functionality of the transplanted heart was monitored daily by palpation. Clinical rejection was defined by cessation of palpable heartbeats and confirmed by autopsy. Loss of graft function within 48 hrs of transplantation was considered as a technical failure, and animals in which this occurred were omitted from the analysis.
Finally, this metabolic reprogramming therapy with at least three metabolic reprogramming agents was employed in a Balb/c to C57BL/6 heart transplantation, which is a vascularized solid organ transplantation model. Strikingly, when recipient mice were treated with metabolic reprogramming therapy with at least three metabolic reprogramming agents, the grafted hearts continued beating for more than 100 days post-transplantation without rejection (FIG. 15F).

Data set [17] has as its system mouse model of Acute Respiratory Distress Syndrome (ARDS). Nature of the data set: Mouse model of acute respiratory distress syndrome (ARDS). The conditions noted are these: treated on day 2 & 4. Type of data set: in vivo, mice. An excerpt:
FIG. 17A, FIG. 17B, and FIG. 17C show targeting glutamine in a mouse model of acute respiratory distress syndrome (ARDS). Mice were challenged with Ips (FIG. 17A) to induce ARDS and treated with DON on day 2 & 4.

The subject of data set [18] is mouse model of Pulmonary Fibrosis. Nature of the data set: Mouse model of pulmonary fibrosis (intratracheal bleomycin). The conditions noted are these: in vivo. Further details: species or system mice. How it is done: Mice were treated with intratracheal bleomycin to induce fibrosis.
Data set [19] relates to cerebral malaria. Nature of the data set: Cerebral malaria in mice. The class given is in vivo. The conditions noted are these: treated on day 5 post infection and on day 6, every other day. How it is done:
FIG. 19A and FIG. 19B show the targeting of glutamine metabolism to cure Cerebral malaria. Mice were treated on day 5 post infection and on day 6 (12 hours before subsequent death) with DON every other day.

Data set [20] relates to arthritis in a mouse model. Nature of the data set: Arthritis mouse model. The conditions noted are these: in vivo.
The test system of data set [21] is pneumonitis in a mouse model. Nature of the data set: Pneumonitis mouse model. To be noted: in vivo.

As to `O=CC[C@@H](O)[C@H](O)[C@H](O)CO` [Compound 2-DG, 2-deoxy-D-glucose], in data set [1], the “ECAR (glycolytic flux) of activated T cells” value (“ECAR (glycolytic flux)” below) is “sharp decrease” and the “OCR (OXPHOS) of activated T cells” value was “insignificant increase”. Besides, in [2], the T cell proliferation entry was “inhibited T cell proliferation and cytokine production in a dose-dependent manner”. Further, the “IFN-γ (cytokine) production” value in data set [3] is “inhibited T cell proliferation and cytokine production in a dose-dependent manner”.
As for `CC(C)OC(=O)[C@H](CCC(=O)C=[N+]=[N-])NC(=O)OC(OC(=O)C(C)(C)C)c1ccccc1` (some centres unmarked) [Compound 47], in data set [4], the “CSF-to-plasma ratio of DON” value is given as “increased CSF-to-plasma ratios” and the “amount of DON delivered to the CSF relative to DON” value was “substantially higher amounts of DON”.
As for `CN(C)C(=N)N=C(N)N` [metformin], in [1], the “ECAR (glycolytic flux)” value is on record as “increase” and the “OCR (OXPHOS) of activated T cells” value was “marked suppression”. For the same compound, the T cell proliferation entry in data set [2] is “inhibited T cell proliferation and cytokine production in a dose-dependent manner”. Moreover, the “IFN-γ (cytokine) production” value in [3] was “inhibited T cell proliferation and cytokine production in a dose-dependent manner”.
As to `CC(C)OC(=O)[C@H](CCC(=O)C=[N+]=[N-])NC(=O)[C@@H](N)Cc1c[nH]c2ccccc12` [Compound 38a], the liver microsomal stability result in [5] and in data set [6] was “moderate-high stability” in each case.
Take `CC(C)OC(=O)[C@H](CCC(=O)C=[N+]=[N-])NC(=O)O[C@H](C)OC(=O)C(C)(C)C` (single isomer, unassigned) [Compound 14b]: the “CSF-to-plasma ratio of DON” value in data set [4] is listed as “increased CSF-to-plasma ratios”. Also, the “amount of DON delivered to the CSF relative to DON” value in [4] was “substantially higher amounts of DON”. Further, the plasma stability result in [7] is “stable”; in [8], “stable”; in data set [9], “stable”; in data set [10], “stable”; in data set [11], “rapidly metabolized”.
For `CC(C)C[C@H](N)C(=O)N[C@@H](CCC(=O)C=[N+]=[N-])C(=O)OC(C)C` [Compound 9], the liver microsomal stability entry in data set [5] and in data set [6] was “moderate-high stability” throughout.
In the case of `CC(=O)N[C@@H](Cc1c[nH]c2ccccc12)C(=O)N[C@@H](CCC(=O)C=[N+]=[N-])C(=O)OC(C)C` [Compound 60a], the liver microsomal stability result in data set [5] and in data set [6] was “moderate-high stability” each time.
Regarding `[N-]=[N+]=CC(=O)CC[C@H](N)C(=O)O` [DON, 6-Diazo-5-oxo-L-norleucine], in [1], the “ECAR (glycolytic flux)” value is reported as “did not have an obvious impact” and the “OCR (OXPHOS) of activated T cells” value is on record as “did not have an obvious impact”. For the same compound, in data set [2], the T cell proliferation result is reported as “decreased”. Also, in data set [3], the “IFN-γ (cytokine) production” value was “decreased”. Moreover, the “glutaminase activity of activated T cells” value in data set [12] is “significantly abrogated”. Moreover, in [13] (DON added to 2DG+Metformin therapy), the “CD4+ T cell effector function” value is “very potent inhibition”. In addition, the “frequency of Foxp3+ CD4+ T cells (Tregs) in vivo” value in [13] (relative frequency) is given as “increased the relative frequency of regulatory T cells”. For the same compound, in data set [14], the “CD8+ T cell effector function” value is “very potent inhibition”. The “skin allograft rejection / graft survival” value in [15] (fully MHC-mismatched) was “prevents transplant rejection and prolongs skin graft survival”. Besides, in data set [15] (treatment from day 0 until rejection, no treatment 11 days), the “skin graft median survival time (MST)” value is on record as 22 days. The “heart transplant rejection” value in data set [16] is on record as “able to prevent heart transplant rejection”. In addition, in data set [17], the lung damage result was “less lung damage” and the “recovery (weight gain)” value is on record as “more rapid recovery (weight gain)”. In data set [18], the lung damage entry was “markedly decreased lung damage” and the “recruitment/generation of lung fibrocytes” value is “decrease in the recruitment/generation of lung fibrocytes”. The “death (survival)” value in data set [19] is “prevent death at such a late stage of disease”. For the same compound, in [20], the arthritis entry is “treated arthritis”. For the same compound, the pneumonitis entry in [21] was “treated pneumonitis”.

Source of the values: patent publication US10568868B2, “Methods and compositions for treating metabolic reprogramming disorders” (THE JOHNS HOPKINS UNIVERSITY, priority 2015, dated 2020).
